According to US10344060B2 (priority 2013, dated 2019):
“And” between values parts separate entries of the source, which are not always exact repeats. Identical values can stand only once. Like-named read-outs stand apart in the source and are kept apart here.

What was measured:
Test in all cases: cell-based
[1] = target: hNav1.7 (Homo sapiens, UniProt Q15858); details: for IC50: read-out: IC50 (μM) Nav1.7; for Nav1.4/Nav1.7: ratio of IonWorks Quattro IC50 values, Nav1.4 over Nav1.7
[2] = target: hNav1.4 (Homo sapiens, UniProt P35499); type: cell-based; details: for IC50: read-out: IC50 (μM) Nav1.4; for Nav1.4/Nav1.7: ratio of IonWorks Quattro IC50 values
[3] = target: hNav1.3 (Homo sapiens, UniProt Q9NY46); details: read-out: IC50 (μM) Nav1.3
[4] = target: hNav1.5 (Homo sapiens, UniProt Q14524); details: read-out: IC50 (μM) Nav1.5
Sequence of hNav1.5 (Q14524 whole entry): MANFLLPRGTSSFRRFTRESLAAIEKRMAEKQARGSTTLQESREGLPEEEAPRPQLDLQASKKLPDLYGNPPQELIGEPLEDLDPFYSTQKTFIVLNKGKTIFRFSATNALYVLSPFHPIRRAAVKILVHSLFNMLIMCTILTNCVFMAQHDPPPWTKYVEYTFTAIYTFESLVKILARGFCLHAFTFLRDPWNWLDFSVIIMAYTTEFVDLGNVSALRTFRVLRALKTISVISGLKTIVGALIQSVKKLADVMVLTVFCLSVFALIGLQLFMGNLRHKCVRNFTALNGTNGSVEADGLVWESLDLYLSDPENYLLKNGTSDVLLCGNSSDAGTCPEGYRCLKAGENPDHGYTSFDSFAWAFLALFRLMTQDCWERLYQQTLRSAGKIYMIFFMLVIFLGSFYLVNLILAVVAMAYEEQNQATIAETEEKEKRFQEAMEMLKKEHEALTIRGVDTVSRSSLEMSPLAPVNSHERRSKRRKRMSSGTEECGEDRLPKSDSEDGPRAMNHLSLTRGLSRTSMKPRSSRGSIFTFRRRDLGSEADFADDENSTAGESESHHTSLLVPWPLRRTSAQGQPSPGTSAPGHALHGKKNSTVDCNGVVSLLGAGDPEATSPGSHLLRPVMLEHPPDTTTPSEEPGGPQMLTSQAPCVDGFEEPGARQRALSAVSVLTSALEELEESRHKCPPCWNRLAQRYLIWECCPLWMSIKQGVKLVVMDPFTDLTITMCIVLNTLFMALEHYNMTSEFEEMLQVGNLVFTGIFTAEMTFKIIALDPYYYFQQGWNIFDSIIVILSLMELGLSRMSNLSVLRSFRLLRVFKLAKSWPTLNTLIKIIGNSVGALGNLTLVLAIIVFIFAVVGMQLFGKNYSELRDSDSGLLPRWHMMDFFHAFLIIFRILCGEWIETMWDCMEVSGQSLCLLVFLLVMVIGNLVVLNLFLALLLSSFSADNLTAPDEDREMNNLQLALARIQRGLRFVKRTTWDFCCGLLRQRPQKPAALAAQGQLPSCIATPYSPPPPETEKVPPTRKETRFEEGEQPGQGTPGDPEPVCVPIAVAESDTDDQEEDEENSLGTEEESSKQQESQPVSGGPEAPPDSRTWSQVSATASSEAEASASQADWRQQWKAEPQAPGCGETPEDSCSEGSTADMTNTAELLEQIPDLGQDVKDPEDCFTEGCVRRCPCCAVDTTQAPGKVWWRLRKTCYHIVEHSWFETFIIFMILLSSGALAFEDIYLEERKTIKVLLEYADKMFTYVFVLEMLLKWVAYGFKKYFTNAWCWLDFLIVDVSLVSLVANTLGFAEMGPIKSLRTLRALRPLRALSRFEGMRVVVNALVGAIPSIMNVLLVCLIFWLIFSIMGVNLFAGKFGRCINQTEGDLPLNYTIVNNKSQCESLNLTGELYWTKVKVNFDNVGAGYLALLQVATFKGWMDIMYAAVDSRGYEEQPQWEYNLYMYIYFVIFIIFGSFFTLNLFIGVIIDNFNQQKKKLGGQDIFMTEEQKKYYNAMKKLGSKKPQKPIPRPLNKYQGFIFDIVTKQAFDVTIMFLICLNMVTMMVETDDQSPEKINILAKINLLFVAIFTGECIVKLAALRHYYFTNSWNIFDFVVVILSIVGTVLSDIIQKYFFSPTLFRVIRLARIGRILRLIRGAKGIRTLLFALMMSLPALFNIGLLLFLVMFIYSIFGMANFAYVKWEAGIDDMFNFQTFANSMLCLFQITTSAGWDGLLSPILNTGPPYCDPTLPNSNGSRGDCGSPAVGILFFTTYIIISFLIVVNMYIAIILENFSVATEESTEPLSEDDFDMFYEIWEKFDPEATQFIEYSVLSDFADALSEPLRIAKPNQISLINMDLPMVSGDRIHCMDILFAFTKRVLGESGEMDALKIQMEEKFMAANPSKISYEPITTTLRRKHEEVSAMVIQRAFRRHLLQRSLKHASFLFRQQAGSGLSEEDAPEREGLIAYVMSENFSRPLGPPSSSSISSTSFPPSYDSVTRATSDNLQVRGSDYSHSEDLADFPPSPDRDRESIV

Sequence of hNav1.7 (Q15858 whole entry): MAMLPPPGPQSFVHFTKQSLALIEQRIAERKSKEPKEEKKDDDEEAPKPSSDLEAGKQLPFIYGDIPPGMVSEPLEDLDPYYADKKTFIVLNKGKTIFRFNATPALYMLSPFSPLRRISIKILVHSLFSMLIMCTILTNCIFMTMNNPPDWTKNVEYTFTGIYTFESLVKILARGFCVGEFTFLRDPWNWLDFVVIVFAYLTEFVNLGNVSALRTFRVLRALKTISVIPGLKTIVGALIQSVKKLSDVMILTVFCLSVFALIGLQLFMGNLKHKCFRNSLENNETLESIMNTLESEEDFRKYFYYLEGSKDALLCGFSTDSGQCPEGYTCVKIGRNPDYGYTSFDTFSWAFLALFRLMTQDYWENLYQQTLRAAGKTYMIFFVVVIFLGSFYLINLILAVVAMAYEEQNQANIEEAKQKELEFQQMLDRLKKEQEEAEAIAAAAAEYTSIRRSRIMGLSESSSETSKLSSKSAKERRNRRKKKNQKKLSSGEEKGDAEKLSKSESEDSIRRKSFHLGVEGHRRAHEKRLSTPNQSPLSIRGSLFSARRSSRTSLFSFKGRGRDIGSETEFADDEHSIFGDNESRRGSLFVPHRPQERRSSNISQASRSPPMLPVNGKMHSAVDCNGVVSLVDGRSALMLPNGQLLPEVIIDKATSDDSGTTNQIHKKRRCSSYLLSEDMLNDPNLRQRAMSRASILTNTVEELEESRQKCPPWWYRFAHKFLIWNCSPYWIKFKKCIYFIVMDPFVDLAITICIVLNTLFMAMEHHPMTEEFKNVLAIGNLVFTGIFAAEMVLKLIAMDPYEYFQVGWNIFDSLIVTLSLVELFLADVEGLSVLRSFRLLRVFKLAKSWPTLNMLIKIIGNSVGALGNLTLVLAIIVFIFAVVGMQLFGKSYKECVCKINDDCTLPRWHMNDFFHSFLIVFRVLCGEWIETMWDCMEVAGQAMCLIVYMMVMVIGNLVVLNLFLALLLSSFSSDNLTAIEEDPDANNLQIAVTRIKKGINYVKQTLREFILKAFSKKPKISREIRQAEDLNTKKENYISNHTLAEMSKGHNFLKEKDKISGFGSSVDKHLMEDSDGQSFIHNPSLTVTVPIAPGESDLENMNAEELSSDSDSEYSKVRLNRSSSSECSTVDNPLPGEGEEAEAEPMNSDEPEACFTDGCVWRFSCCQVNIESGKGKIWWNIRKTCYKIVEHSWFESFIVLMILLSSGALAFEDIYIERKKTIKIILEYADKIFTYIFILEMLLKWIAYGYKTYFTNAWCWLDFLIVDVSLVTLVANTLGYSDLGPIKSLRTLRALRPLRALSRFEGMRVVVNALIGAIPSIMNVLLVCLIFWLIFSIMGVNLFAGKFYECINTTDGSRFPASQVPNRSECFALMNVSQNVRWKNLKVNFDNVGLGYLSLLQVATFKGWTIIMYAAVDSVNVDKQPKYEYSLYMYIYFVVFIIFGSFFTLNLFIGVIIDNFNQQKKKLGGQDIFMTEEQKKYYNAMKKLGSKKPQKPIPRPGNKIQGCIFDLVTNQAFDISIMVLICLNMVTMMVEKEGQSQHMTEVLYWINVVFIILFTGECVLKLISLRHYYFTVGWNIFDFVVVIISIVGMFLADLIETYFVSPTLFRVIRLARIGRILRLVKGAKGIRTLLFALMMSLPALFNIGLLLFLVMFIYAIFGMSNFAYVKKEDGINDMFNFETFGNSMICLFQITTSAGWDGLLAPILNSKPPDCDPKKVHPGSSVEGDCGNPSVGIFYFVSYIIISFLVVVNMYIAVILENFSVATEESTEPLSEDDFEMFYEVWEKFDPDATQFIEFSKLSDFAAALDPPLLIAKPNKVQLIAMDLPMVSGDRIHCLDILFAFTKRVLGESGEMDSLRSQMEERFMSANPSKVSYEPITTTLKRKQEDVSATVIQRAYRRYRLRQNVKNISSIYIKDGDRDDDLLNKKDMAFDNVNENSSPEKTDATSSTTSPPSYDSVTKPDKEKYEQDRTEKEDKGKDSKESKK

Row | SMILES | IC50 [1] | IC50 ([2]; IonWorks Quattro, Table 6) | Nav1.4/Nav1.7 ([2]; Table 6) | IC50 ([3]; IonWorks Quattro, Table 6) | IC50 ([4]; IonWorks Quattro, Table 6) | Nav1.4/Nav1.7 [1] | IC50 [2] | IC50 [3] | IC50 [4] | IC50 ([1]; IonWorks Quattro, […]) | IC50 ([2]; IonWorks Quattro, Table 9) | IC50 ([3]; IonWorks Quattro, Table 9) | IC50 ([4]; IonWorks Quattro, Table 9)
1 | CC[C@H](C)[C@H](NC(=O)[C@@H](NC(=O)[C@H](CCCCN)NC(=O)[C@H](CCCNC(=N)N)NC(=O)[C@@H]1CSSC[C@@H]2NC(=O)[C@H](C)NC(=O)[C@H](CCCNC(=N)N)NC(=O)[C@H](CCCCN)NC(=O)[C@H](CO)NC(=O)[C@H](CC(=O)O)NC(=O)[C@@H]3CSSC[C@H](NC(=O)[C@H](CCCNC(=N)N)NC(=O)[C@H](CC(C)C)NC(=O)CNC(=O)[C@H](CCC(=O)O)NC(=O)[C@H](CSSC[C@H](NC(=O)[C@@H](N)Cc4ccc(O)cc4)C(=O)N[C@@H](CCC(N)=O)C(=O)N[C@@H](CCCCN)C(=O)N[C@@H](Cc4c[nH]c5ccccc45)C(=O)N[C@@H](CCSC)C(=O)N[C@@H](Cc4c[nH]c5ccccc45)C(=O)N[C@@H]([C@@H](C)O)C(=O)N3)NC2=O)C(=O)N[C@@H](CCCNC(=N)N)C(=O)N[C@@H](CC(C)C)C(=O)N[C@@H](Cc2c[nH]c3ccccc23)C(=O)N1)[C@@H](C)CC)C(N)=O [compound 104] | 0.016 µM | 0.17 µM | 11 | 0.08 µM | 2 µM |  |  |  |  |  |  |  | 
2 | CC[C@H](C)[C@H](NC(=O)[C@@H](NC(=O)[C@H](CCCCN)NC(=O)[C@H](CCCNC(=N)N)NC(=O)[C@@H]1CSSC[C@@H]2NC(=O)[C@H](C)NC(=O)[C@H](CCCNC(=N)N)NC(=O)[C@H](CCCCN)NC(=O)[C@H](CO)NC(=O)[C@H](CC(=O)O)NC(=O)[C@@H]3CSSC[C@H](NC(=O)[C@H](CCCNC(=N)N)NC(=O)[C@H](CC(C)C)NC(=O)CNC(=O)[C@H](CCC(=O)O)NC(=O)[C@H](CSSC[C@H](NC(=O)[C@@H](N)Cc4ccc(O)cc4)C(=O)N[C@@H](CCC(N)=O)C(=O)N[C@@H](CCCCN)C(=O)N[C@@H](Cc4c[nH]c5ccccc45)C(=O)N[C@@H](CCSC)C(=O)N[C@@H](Cc4c[nH]c5ccccc45)C(=O)N[C@@H]([C@@H](C)O)C(=O)N3)NC2=O)C(=O)N[C@@H](CCCCN)C(=O)N[C@@H](CCCNC(=N)N)C(=O)N[C@@H](Cc2c[nH]c3ccccc23)C(=O)N1)[C@@H](C)CC)C(N)=O [compound 105] | 0.15 µM | 0.21 µM | 1 | 0.15 µM | 2.8 µM |  |  |  |  |  |  |  | 
3 | CC[C@H](C)[C@H](NC(=O)[C@@H](NC(=O)[C@H](CCCCN)NC(=O)[C@H](CCCNC(=N)N)NC(=O)[C@@H]1CSSC[C@@H]2NC(=O)[C@H](C)NC(=O)[C@H](CCCNC(=N)N)NC(=O)[C@H](CCCCN)NC(=O)[C@H](CO)NC(=O)[C@H](CC(=O)O)NC(=O)[C@@H]3CSSC[C@H](NC(=O)[C@H](CCCNC(=N)N)NC(=O)[C@H](CC(C)C)NC(=O)CNC(=O)[C@H](CCC(=O)O)NC(=O)[C@H](CSSC[C@H](NC(=O)[C@@H](N)Cc4ccc(O)cc4)C(=O)N[C@@H](CCC(N)=O)C(=O)N[C@@H](CCCCN)C(=O)N[C@@H](Cc4c[nH]c5ccccc45)C(=O)N[C@@H](CCSC)C(=O)N[C@@H](Cc4c[nH]c5ccccc45)C(=O)N[C@@H]([C@@H](C)O)C(=O)N3)NC2=O)C(=O)N[C@@H](CCCCN)C(=O)N[C@@H](CC(C)C)C(=O)N[C@@H](CCCNC(=N)N)C(=O)N1)[C@@H](C)CC)C(N)=O [compound 106] | 5 µM | 2.5 µM | 1 | 4.8 µM | > 5 µM |  |  |  |  |  |  |  | 
4 | CC[C@H](C)[C@H](NC(=O)[C@@H](NC(=O)[C@H](CCCNC(=N)N)NC(=O)[C@H](CCCNC(=N)N)NC(=O)[C@@H]1CSSC[C@@H]2NC(=O)[C@H](C)NC(=O)[C@H](CCCNC(=N)N)NC(=O)[C@H](CCCCN)NC(=O)[C@H](CO)NC(=O)[C@H](CC(=O)O)NC(=O)[C@@H]3CSSC[C@H](NC(=O)[C@H](CCCNC(=N)N)NC(=O)[C@H](CC(C)C)NC(=O)CNC(=O)[C@H](CCC(=O)O)NC(=O)[C@H](CSSC[C@H](NC(=O)[C@@H](N)Cc4ccc(O)cc4)C(=O)N[C@@H](CCC(N)=O)C(=O)N[C@@H](CCCCN)C(=O)N[C@@H](Cc4c[nH]c5ccccc45)C(=O)N[C@@H](CCSC)C(=O)N[C@@H](Cc4c[nH]c5ccccc45)C(=O)N[C@@H]([C@@H](C)O)C(=O)N3)NC2=O)C(=O)N[C@@H](CCCCN)C(=O)N[C@@H](CC(C)C)C(=O)N[C@@H](Cc2c[nH]c3ccccc23)C(=O)N1)[C@@H](C)CC)C(N)=O [compound 107] | 0.028 µM | 0.23 µM | 8 | 0.1 µM | > 5 µM |  |  |  |  |  |  |  | 
5 | CC[C@H](C)[C@H](NC(=O)[C@H](CCCCN)NC(=O)[C@H](CCCNC(=N)N)NC(=O)[C@@H]1CSSC[C@@H]2NC(=O)[C@H](C)NC(=O)[C@H](CCCNC(=N)N)NC(=O)[C@H](CCCCN)NC(=O)[C@H](CO)NC(=O)[C@H](CC(=O)O)NC(=O)[C@@H]3CSSC[C@H](NC(=O)[C@H](CCCNC(=N)N)NC(=O)[C@H](CC(C)C)NC(=O)CNC(=O)[C@H](CCC(=O)O)NC(=O)[C@H](CSSC[C@H](NC(=O)[C@@H](N)Cc4ccc(O)cc4)C(=O)N[C@@H](CCC(N)=O)C(=O)N[C@@H](CCCCN)C(=O)N[C@@H](Cc4c[nH]c5ccccc45)C(=O)N[C@@H](CCSC)C(=O)N[C@@H](Cc4c[nH]c5ccccc45)C(=O)N[C@@H]([C@@H](C)O)C(=O)N3)NC2=O)C(=O)N[C@@H](CCCCN)C(=O)N[C@@H](CC(C)C)C(=O)N[C@@H](Cc2c[nH]c3ccccc23)C(=O)N1)C(=O)N[C@@H](CCCNC(=N)N)C(N)=O [compound 109] | 0.067 µM | 1.1 µM | 16 | 1.3 µM | > 5 µM |  |  |  |  |  |  |  | 
6 | CC[C@@H]1NC(=O)[C@H](CC(C)C)NC(=O)CNC(=O)[C@H](CCC(=O)O)NC(=O)[C@@H]2CSSC[C@H](NC(=O)[C@@H](N)Cc3ccc(O)cc3)C(=O)N[C@@H](CCC(N)=O)C(=O)N[C@@H](CCCCN)C(=O)N[C@@H](Cc3c[nH]c4ccccc34)C(=O)N[C@@H](CCSC)C(=O)N[C@@H](Cc3c[nH]c4ccccc34)C(=O)N[C@@H]([C@@H](C)O)C(=O)N[C@H]3CSSC[C@H](NC1=O)C(=O)N[C@@H](CCCCN)C(=O)N[C@@H](CC(C)C)C(=O)N[C@@H](Cc1c[nH]c4ccccc14)C(=O)N[C@H](C(=O)N[C@@H](CCCNC(=N)N)C(=O)N[C@@H](CCCCN)C(=O)N[C@H](C(=O)N[C@H](C(N)=O)[C@@H](C)CC)[C@@H](C)CC)CSSC[C@H](NC(=O)[C@H](C)NC(=O)[C@H](CCCNC(=N)N)NC(=O)[C@H](CCCCN)NC(=O)[C@H](CO)NC(=O)[C@H](CC(=O)O)NC3=O)C(=O)N2 [compound 117] | 0.05 µM |  |  |  |  | 19 | 0.9 µM | 0.97 µM | 10.6 µM |  |  |  | 
7 | CC[C@H](NC(=O)[C@H](CCCCN)NC(=O)[C@H](CCCNC(=N)N)NC(=O)[C@@H]1CSSC[C@@H]2NC(=O)[C@H](C)NC(=O)[C@H](CCCNC(=N)N)NC(=O)[C@H](CCCCN)NC(=O)[C@H](CO)NC(=O)[C@H](CC(=O)O)NC(=O)[C@@H]3CSSC[C@H](NC(=O)[C@H](CCC(=O)O)NC(=O)[C@H](CC(C)C)NC(=O)CNC(=O)[C@H](CCC(=O)O)NC(=O)[C@H](CSSC[C@H](NC(=O)[C@@H](N)Cc4ccc(O)cc4)C(=O)N[C@@H](CCC(N)=O)C(=O)N[C@@H](CCCCN)C(=O)N[C@@H](Cc4c[nH]c5ccccc45)C(=O)N[C@@H](CCSC)C(=O)N[C@@H](Cc4c[nH]c5ccccc45)C(=O)N[C@@H]([C@@H](C)O)C(=O)N3)NC2=O)C(=O)N[C@@H](CCCCN)C(=O)N[C@@H](CC(C)C)C(=O)N[C@@H](Cc2c[nH]c3ccccc23)C(=O)N1)C(=O)N[C@H](C(N)=O)[C@@H](C)CC [compound 130] | 0.17 µM and 0.21 µM |  |  |  |  | 29 and 24 | > 5 µM | > 5 µM | 8.2 µM and 11.1 µM |  |  |  | 
8 | CCCC[C@@H]1NC(=O)[C@H](Cc2cn(CCCOCCOCCOCCOCCOCCOCCOCCOCCOCCOCCN)nn2)NC(=O)[C@H](CCCCN)NC(=O)[C@H](CCC(N)=O)NC(=O)[C@@H](NC(=O)[C@@H](N)Cc2ccc(O)cc2)CSSC[C@@H]2NC(=O)[C@@H]3CSSC[C@@H](C(=O)N[C@@H](CCCNC(=N)N)C(=O)N[C@@H](CCCCN)C(=O)N[C@H](C(=O)N[C@H](C(N)=O)[C@@H](C)CC)[C@@H](C)CC)NC(=O)[C@H](Cc4c[nH]c5ccccc45)NC(=O)[C@H](CC(C)C)NC(=O)[C@H](CCCCN)NC(=O)[C@H](CSSC[C@H](NC(=O)[C@H]([C@@H](C)O)NC(=O)[C@H](Cc4c[nH]c5ccccc45)NC1=O)C(=O)N[C@@H](CC(=O)O)C(=O)N[C@@H](CO)C(=O)N[C@@H](CCCCN)C(=O)N[C@@H](CCCNC(=N)N)C(=O)N[C@@H](C)C(=O)N3)NC(=O)[C@H](CCCNC(=N)N)NC(=O)[C@H](CC(C)C)NC(=O)CNC(=O)[C@H](CCC(=O)O)NC2=O [compound 251] |  |  |  |  |  |  |  |  |  | > 7 µM | > 7 µM | > 7 µM | > 7 µM
9 | CCCC[C@@H]1NC(=O)[C@H](Cc2c[nH]c3ccccc23)NC(=O)[C@H](CCCCN)NC(=O)[C@H](CCC(N)=O)NC(=O)[C@@H](NC(=O)[C@@H](N)Cc2ccc(O)cc2)CSSC[C@@H]2NC(=O)[C@@H]3CSSC[C@@H](C(=O)N[C@@H](CCCNC(=N)N)C(=O)N[C@@H](CCCCN)C(=O)N[C@H](C(=O)N[C@H](C(N)=O)[C@@H](C)CC)[C@@H](C)CC)NC(=O)[C@H](Cc4c[nH]c5ccccc45)NC(=O)[C@H](CC(C)C)NC(=O)[C@H](CCCCN)NC(=O)[C@H](CSSC[C@H](NC(=O)[C@H]([C@@H](C)O)NC(=O)[C@H](Cc4cn(CCCOCCOCCOCCOCCOCCOCCOCCOCCOCCOCCN)nn4)NC1=O)C(=O)N[C@@H](CC(=O)O)C(=O)N[C@@H](CO)C(=O)N[C@@H](CCCCN)C(=O)N[C@@H](CCCNC(=N)N)C(=O)N[C@@H](C)C(=O)N3)NC(=O)[C@H](CCCNC(=N)N)NC(=O)[C@H](CC(C)C)NC(=O)CNC(=O)[C@H](CCC(=O)O)NC2=O [compound 253] |  |  |  |  |  |  |  |  |  | 4.6 µM | > 7 µM | > 7 µM | > 7 µM
